From PubChem BioAssay (NCI)
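Cells were grown in 96-well plates and exposed to each compound for 48 hours at five concentrations; endpoints were interpolated linearly between bracketing concentrations, or set to the highest concentration if not reached. TGI: concentration producing complete growth inhibition.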

Columns and labels:
Test in all cases: NCI tumour cell line growth inhibition, 48 h
KM12 colon = tested on: KM12 colon
OVCAR-4 ovarian = tested on: OVCAR-4 ovarian
NCI-H522 lung = tested on: NCI-H522 lung
NCI-H460 lung = tested on: NCI-H460 lung
SW-620 colon = tested on: SW-620 colon
SK-MEL-28 melanoma = tested on: SK-MEL-28 melanoma
CCRF-CEM leukemia = tested on: CCRF-CEM leukemia
MOLT-4 leukemia = tested on: MOLT-4 leukemia
HCT-116 colon = tested on: HCT-116 colon
OVCAR-8 ovarian = tested on: OVCAR-8 ovarian
SK-MEL-5 melanoma = tested on: SK-MEL-5 melanoma
K-562 leukemia = tested on: K-562 leukemia
CAKI-1 renal = tested on: CAKI-1 renal
NCI-H23 lung = tested on: NCI-H23 lung
HCC-2998 colon = tested on: HCC-2998 colon
OVCAR-5 ovarian = tested on: OVCAR-5 ovarian
OVCAR-3 ovarian = tested on: OVCAR-3 ovarian
HCT-15 colon = tested on: HCT-15 colon
MALME-3M melanoma = tested on: MALME-3M melanoma
786-0 renal = tested on: 786-0 renal
UACC-257 melanoma = tested on: UACC-257 melanoma
SK-OV-3 ovarian = tested on: SK-OV-3 ovarian
DU-145 prostate = tested on: DU-145 prostate
UACC-62 melanoma = tested on: UACC-62 melanoma
SNB-75 CNS = tested on: SNB-75 CNS
SK-MEL-2 melanoma = tested on: SK-MEL-2 melanoma
SF-268 CNS = tested on: SF-268 CNS
EKVX NSCLC = tested on: EKVX NSCLC
ACHN renal = tested on: ACHN renal
SNB-19 CNS = tested on: SNB-19 CNS
A498 renal = tested on: A498 renal
LOX IMVI melanoma = tested on: LOX IMVI melanoma
TK-10 renal = tested on: TK-10 renal
MDA-MB-435 = tested on: MDA-MB-435
SR leukemia = tested on: SR leukemia
BT-549 breast = tested on: BT-549 breast
MCF7 breast = tested on: MCF7 breast
RPMI-8226 leukemia = tested on: RPMI-8226 leukemia
NCI-H226 lung = tested on: NCI-H226 lung
COLO 205 colon = tested on: COLO 205 colon
HT29 colon = tested on: HT29 colon
HL-60(TB) leukemia = tested on: HL-60(TB) leukemia
M14 melanoma = tested on: M14 melanoma
MDA-MB-231 breast = tested on: MDA-MB-231 breast
SF-539 CNS = tested on: SF-539 CNS
PC-3 prostate = tested on: PC-3 prostate
U251 CNS = tested on: U251 CNS
HS 578T breast = tested on: HS 578T breast
A549 NSCLC = tested on: A549 NSCLC
T-47D breast = tested on: T-47D breast
SN12C renal = tested on: SN12C renal
HOP-62 NSCLC = tested on: HOP-62 NSCLC
MDA-N = tested on: MDA-N
UO-31 renal = tested on: UO-31 renal
IGROV1 ovarian = tested on: IGROV1 ovarian
SF-295 CNS = tested on: SF-295 CNS
RXF 393 renal = tested on: RXF 393 renal
HOP-92 NSCLC = tested on: HOP-92 NSCLC

Measured: TGI

Cc1ccc(NC(=O)/C=C/c2ccccc2)c(C)c1
> 100 µM: KM12 colon | OVCAR-4 ovarian | NCI-H522 lung | NCI-H460 lung | SW-620 colon | SK-MEL-28 melanoma | CCRF-CEM leukemia | MOLT-4 leukemia | HCT-116 colon | OVCAR-8 ovarian | SK-MEL-5 melanoma | K-562 leukemia | CAKI-1 renal | NCI-H23 lung | HCC-2998 colon | OVCAR-5 ovarian | OVCAR-3 ovarian | HCT-15 colon | MALME-3M melanoma | 786-0 renal | UACC-257 melanoma | SK-OV-3 ovarian | DU-145 prostate | UACC-62 melanoma | SNB-75 CNS | SK-MEL-2 melanoma | SF-268 CNS | EKVX NSCLC | ACHN renal | SNB-19 CNS | A498 renal | LOX IMVI melanoma | TK-10 renal | MDA-MB-435 | SR leukemia | BT-549 breast | MCF7 breast | RPMI-8226 leukemia | COLO 205 colon | HT29 colon | HL-60(TB) leukemia | M14 melanoma | MDA-MB-231 breast | SF-539 CNS | PC-3 prostate | U251 CNS | A549 NSCLC | T-47D breast | SN12C renal | HOP-62 NSCLC | MDA-N
92 µM: NCI-H226 lung
74.4 µM: HS 578T breast

Brc1ccc(-c2[nH]c3ccccc3c2N=Nc2ccccc2)cc1
36 µM: SF-268 CNS
27.8 µM: CAKI-1 renal
31.6 µM: SN12C renal
30.5 µM: A549 NSCLC | MDA-N
31.7 µM: MCF7 breast
34.1 µM: NCI-H23 lung
65.2 µM: LOX IMVI melanoma
30 µM: HCT-15 colon
34.6 µM: NCI-H522 lung
37.2 µM: ACHN renal
33.3 µM: SF-295 CNS
58 µM: RPMI-8226 leukemia
41.5 µM: BT-549 breast
32.2 µM: DU-145 prostate
63.4 µM: HL-60(TB) leukemia
51.8 µM: SR leukemia
26.8 µM: OVCAR-3 ovarian
32 µM: SF-539 CNS
34.5 µM: MDA-MB-435
33.9 µM: SNB-75 CNS | U251 CNS
32.5 µM: T-47D breast
38.1 µM: SNB-19 CNS
26.2 µM: IGROV1 ovarian
29.9 µM: UO-31 renal
33 µM: SK-OV-3 ovarian
36.2 µM: HOP-92 NSCLC
36.1 µM: KM12 colon | MALME-3M melanoma
30.4 µM: OVCAR-4 ovarian
30.8 µM: RXF 393 renal
30.7 µM: HCC-2998 colon
37.8 µM: SK-MEL-28 melanoma | TK-10 renal
28.5 µM: COLO 205 colon
32.9 µM: 786-0 renal | EKVX NSCLC
36.7 µM: UACC-62 melanoma | SK-MEL-2 melanoma
35.8 µM: MDA-MB-231 breast
44.1 µM: A498 renal | HS 578T breast
> 100 µM: K-562 leukemia
34.8 µM: HCT-116 colon
32.6 µM: PC-3 prostate
34.7 µM: HOP-62 NSCLC
33.5 µM: OVCAR-5 ovarian | M14 melanoma
35.1 µM: UACC-257 melanoma
31.8 µM: NCI-H460 lung
32.7 µM: SK-MEL-5 melanoma
35.3 µM: SW-620 colon
38.6 µM: MOLT-4 leukemia

CSC(SC)=C(C#N)C(=O)Nc1ccc(C)cc1
54.8 µM: HOP-92 NSCLC
> 100 µM: KM12 colon | OVCAR-4 ovarian | NCI-H522 lung | NCI-H460 lung | SW-620 colon | SK-MEL-28 melanoma | CCRF-CEM leukemia | MOLT-4 leukemia | HCT-116 colon | SK-MEL-5 melanoma | K-562 leukemia | UO-31 renal | CAKI-1 renal | NCI-H23 lung | HCC-2998 colon | OVCAR-5 ovarian | OVCAR-3 ovarian | HCT-15 colon | MALME-3M melanoma | 786-0 renal | UACC-257 melanoma | IGROV1 ovarian | SK-OV-3 ovarian | DU-145 prostate | UACC-62 melanoma | SF-295 CNS | SK-MEL-2 melanoma | RXF 393 renal | SF-268 CNS | EKVX NSCLC | ACHN renal | SNB-19 CNS | LOX IMVI melanoma | TK-10 renal | MDA-MB-435 | SR leukemia | BT-549 breast | MCF7 breast | RPMI-8226 leukemia | NCI-H226 lung | COLO 205 colon | HT29 colon | HL-60(TB) leukemia | M14 melanoma | MDA-MB-231 breast | SF-539 CNS | PC-3 prostate | U251 CNS | HS 578T breast | A549 NSCLC | T-47D breast | SN12C renal | HOP-62 NSCLC | MDA-N
